Like-named read-outs stand apart in the source and are kept apart here.
Legend:
LS-411N = assay: Drug combination screen (ATPlite, Synergy Score), LS-411N; assay type: cell-based, human
HCT 116 = assay: Drug combination screen (ATPlite, Synergy Score), HCT 116
SW480 = assay: Drug combination screen (ATPlite, Synergy Score), SW480; assay type: cell-based, human
SNU-C2B = assay: Drug combination screen (ATPlite, Synergy Score), SNU-C2B
DLD-1 = assay: Drug combination screen (ATPlite, Synergy Score), DLD-1
[1] = compound in combination with IgG1-hDR5-01-G56T-E430G + IgG1-hDR5-05-E430G, LS-411N, 72 hour ATPlite, 6x6 matrix
[2] = compound in combination with IgG1-hDR5-01-G56T-E430G + IgG1-hDR5-05-E430G, HCT 116, 120 hour ATPlite, 6x6 matrix
[3] = compound in combination with IgG1-hDR5-01-G56T-E430G + IgG1-hDR5-05-E430G, SW480, 72 hour ATPlite, 6x6 matrix
[4] = compound in combination with IgG1-hDR5-01-G56T-E430G + IgG1-hDR5-05-E430G, SNU-C2B, 72 hour ATPlite, 6x6 matrix
[5] = compound in combination with IgG1-hDR5-01-G56T-E430G + IgG1-hDR5-05-E430G, DLD-1, 120 hour ATPlite, 6x6 matrix

Row | Compound | Synergy Score LS-411N (LS-411N; [1]) | Synergy Score HCT-116 (HCT 116; [2]) | Synergy Score SW480 (SW480; [3]) | Synergy Score SNU-C2B (SNU-C2B; [4]) | Synergy Score DLD-1 (DLD-1; [5]) | Synergy Score LS-411N (LS-411N) | Synergy Score HCT-116 (HCT 116) | Synergy Score SW480 (SW480) | Synergy Score SNU-C2B (SNU-C2B) | Synergy Score DLD-1 (DLD-1)
1 | OCCn1cc(-c2ccc3c(c2)CC/C3=N\O)c(-c2ccncc2)n1 [GDC-0879] | 0.4 | 0.2 | 1.6 | 0.7 | 0.1 |  |  |  |  | 
2 | CC1(C)CCC(c2ccc(Cl)cc2)=C(CN2CCN(c3ccc(C(=O)NS(=O)(=O)c4ccc(N[C@H](CCN5CCOCC5)CSc5ccccc5)c(S(=O)(=O)C(F)(F)F)c4)cc3)CC2)C1 [ABT-263] | 7.6 | 0 | 8 | 1 | 3.4 |  |  |  |  | 
3 | N.N.O=C([O-])C1(C(=O)[O-])CCC1.[Pt+2] [Carboplatin] | 12 | 5.8 | 19.5 | 11.6 | 11.3 |  |  |  |  | 
4 | Nc1ccn([C@@H]2O[C@H](CO)[C@@H](O)C2(F)F)c(=O)n1 [Gemcitabine] | 5.7 | 12.2 | 31.1 | 18.5 | 20.3 |  |  |  |  | 
5 | COC1=CC(c2cc3ccccc3[nH]2)=N/C1=C\c1[nH]c(C)cc1C [Obatoclax] | 22.8 | 1.6 | 11.8 | 4.7 | 6.1 |  |  |  |  | 
6 | Cc1ccc(NC(=O)c2ccc(CN3CCN(C)CC3)cc2)cc1Nc1nc(-c2cccnc2)cs1 [Masitinib] | 1.4 | 0.3 | 1.9 | 1.7 | 0.6 |  |  |  |  | 
7 | Cc1cc(NC(=O)c2cccc(NC(=O)/C=C/CN(C)C)c2)ccc1Nc1nccc(-c2cccnc2)n1 [JNK-IN-8] | 0.1 | 0 | 0.4 | 1.1 | 0.2 |  |  |  |  | 
8 | CC(C)=CCC/C(C)=C/CC/C(C)=C/CSc1ccccc1C(=O)O [Salirasib] | 0 | 0.1 | 0.4 | 0.4 | 0.1 |  |  |  |  | 
9 | CS(=O)(=O)N1CCN(Cc2cc3nc(-c4cccc5[nH]ncc45)nc(N4CCOCC4)c3s2)CC1 [GDC-0941] | 12.4 | 2 | 12.9 | 7.1 | 4.9 |  |  |  |  | 
10 | C[C@]1(O)C[C@@H](c2nc(-c3ccc4ccc(-c5ccccc5)nc4c3)c3c(N)nccn32)C1 [OSI-906] | 1.7 | 0.1 | 3.5 | 1 | 0.5 |  |  |  |  | 
11 | CC[C@@]1(O)C(=O)OCc2c1cc1n(c2=O)Cc2cc3cc(O)ccc3nc2-1 [10-Hydroxycamptothecin] |  |  |  |  |  | 16.9 | 9.6 | 30.1 | 12.4 | 21.9
12 | Nc1cccc2c1C(=O)N(C1CCC(=O)NC1=O)C2=O (stereo not drawn) [Pomalidomide] | 0 | 0 | 0 | 0.5 | 0.1 |  |  |  |  | 
13 | Cc1ccc(C(=O)Nc2ccc(CN3CCN(C)CC3)c(C(F)(F)F)c2)cc1C#Cc1cnc2cccnn12 [AP24534] | 2.6 | 1.4 | 3.7 | 1.8 | 4.3 |  |  |  |  | 
14 | COCCn1c2c([n+](Cc3cnccn3)c1C)C(=O)c1ccccc1C2=O [YM155] | 9 | 0.5 | 12.1 | 11.5 | 5.2 |  |  |  |  | 
15 | C=CC(=O)Nc1ccc2ncnc(Nc3ccc(OCc4cccc(F)c4)c(Cl)c3)c2c1 [AST-1306] | 1.8 | 0.1 | 0.9 | 0.7 | 0.3 |  |  |  |  | 
16 | CC1(C)CCC(CN2CCN(c3ccc(C(=O)NS(=O)(=O)c4ccc(NCC5CCOCC5)c([N+](=O)[O-])c4)c(Oc4cnc5[nH]ccc5c4)c3)CC2)=C(c2ccc(Cl)cc2)C1 [ABT-199] | 0.1 | 0 | 0 | 0 | 0 |  |  |  |  | 
17 | C[C@]12C=CC(=O)C=C1CC[C@@H]1[C@@H]2C(=O)C[C@@]2(C)[C@H]1CC[C@]2(O)C(=O)CO [Prednisone] | 0.1 | 0 | 0 | 0.2 | 0.1 |  |  |  |  | 
18 | O=C(/C=C/c1cccc(S(=O)(=O)Nc2ccccc2)c1)NO [Belinostat] | 4.5 | 4.1 | 10.2 | 16.4 | 8.6 |  |  |  |  | 
19 | CN(C)CC[C@H](CSc1ccccc1)Nc1ccc(S(=O)(=O)NC(=O)c2ccc(N3CCN(Cc4ccccc4-c4ccc(Cl)cc4)CC3)cc2)cc1[N+](=O)[O-] [ABT-737] | 4.2 | 0 | 7.5 | 1.1 | 1.5 |  |  |  |  | 
20 | CNC(=O)c1cc(Oc2ccc(NC(=O)Nc3ccc(Cl)c(C(F)(F)F)c3)cc2)ccn1 [Sorafenib] | 6 | 0.5 | 3.9 | 2.9 | 2.6 |  |  |  |  | 
21 | CNC(=O)c1ccc(-c2cnc3ncc(Cc4ccc5ncccc5c4)n3n2)cc1F [INCB28060] | 0 | 0.1 | 0 | 0.4 | 0.2 |  |  |  |  | 
22 | COc1cccc2c1C(=O)c1c(O)c3c(c(O)c1C2=O)C[C@@](O)(C(=O)CO)C[C@@H]3O[C@H]1C[C@H](N)[C@@H](O)[C@H](C)O1 [Epirubicin] | 5.8 | 4.9 | 17.7 | 15.1 | 15.6 |  |  |  |  | 
23 | N.N.[Cl][Pt][Cl] [Cisplatin] | 15.4 | 6.7 | 18.9 | 12.9 | 8.8 |  |  |  |  | 
24 | Cc1ccccc1CN1C(=O)C2=C(CCN(Cc3ccccc3)C2)N2CCN=C12 [TIC10] |  |  |  |  |  | 23.3 | 2.2 | 3.4 | 13.1 | 15.5
25 | O=C(c1cc(Cc2n[nH]c(=O)c3ccccc23)ccc1F)N1CCN(C(=O)C2CC2)CC1 [Olaparib] | 2.7 | 1.8 | 1 | 2.5 | 0.7 |  |  |  |  | 
26 | Cn1cc(-c2ccc3nnc(C(F)(F)c4ccc5ncccc5c4)n3n2)cn1 [JNJ-38877605] | 0.1 | 0 | 0 | 0.1 | 0.1 |  |  |  |  | 
27 | C[C@@]1(C(=O)Nc2ccc(F)nc2)CCCN1c1nc(Nc2cc(C3CC3)n[nH]2)c2cccn2n1 [BMS-754807] | 10.8 | 2.1 | 5.9 | 1.3 | 11.3 |  |  |  |  | 

— patent US20200247897A1, “THERAPEUTIC ANTIBODIES BASED ON MUTATED IGG HEXAMERS” (GENMAB B.V., priority 2017, published 2020)
